PMC4188605, “Biochemical and Pharmacological Characterization of the Human Lymphocyte Antigen B-Associated Transcript 5 (BAT5/ABHD16A)” (PLoS ONE, 2014)

Experiments:
hMAGL = molecular target: T1, hMAGL (Homo sapiens, UniProt Q99685); conditions: 2-AG as the substrate; range given jointly for hABHD6, hABHD12 and hMAGL; cited from earlier work
T1 construct: expressed in transfected cells; host or cells: HEK
T1 sequence (Q99685 1-303): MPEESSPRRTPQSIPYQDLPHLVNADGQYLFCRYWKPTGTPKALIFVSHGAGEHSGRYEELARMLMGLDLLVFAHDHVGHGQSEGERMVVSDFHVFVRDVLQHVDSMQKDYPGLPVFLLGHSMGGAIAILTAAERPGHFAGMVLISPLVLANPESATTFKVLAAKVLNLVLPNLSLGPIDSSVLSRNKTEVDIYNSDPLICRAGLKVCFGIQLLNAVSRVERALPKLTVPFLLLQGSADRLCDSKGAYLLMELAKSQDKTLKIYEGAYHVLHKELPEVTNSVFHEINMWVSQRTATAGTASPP

hABHD6 = molecular target: T2, hABHD6 (Homo sapiens, UniProt Q9BV23); design: method as in PMID 22969151; conditions: 2-AG as the substrate; range given jointly for hABHD6, hABHD12 and hMAGL; cited from earlier work
T2 construct: expressed in transfected cells; host or cells: HEK293
T2 sequence (Q9BV23 1-337): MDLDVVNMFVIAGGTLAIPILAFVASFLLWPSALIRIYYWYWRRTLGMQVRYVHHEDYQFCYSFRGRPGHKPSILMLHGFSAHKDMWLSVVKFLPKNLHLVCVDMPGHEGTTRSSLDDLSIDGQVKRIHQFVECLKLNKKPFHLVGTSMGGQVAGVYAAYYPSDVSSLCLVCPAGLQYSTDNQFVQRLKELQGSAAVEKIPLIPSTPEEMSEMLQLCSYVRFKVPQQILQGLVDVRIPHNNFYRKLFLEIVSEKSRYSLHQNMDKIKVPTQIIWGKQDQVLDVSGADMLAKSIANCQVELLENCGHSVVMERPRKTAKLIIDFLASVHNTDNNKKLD

hABHD12 = molecular target: T3, hABHD12 (Homo sapiens, UniProt Q8N2K0); design: method as in PMID 22969151; conditions: 2-AG as the substrate; range given jointly for hABHD6, hABHD12 and hMAGL; cited from earlier work
T3 construct: expressed in transfected cells; host or cells: HEK293
T3 sequence (Q8N2K0 1-398): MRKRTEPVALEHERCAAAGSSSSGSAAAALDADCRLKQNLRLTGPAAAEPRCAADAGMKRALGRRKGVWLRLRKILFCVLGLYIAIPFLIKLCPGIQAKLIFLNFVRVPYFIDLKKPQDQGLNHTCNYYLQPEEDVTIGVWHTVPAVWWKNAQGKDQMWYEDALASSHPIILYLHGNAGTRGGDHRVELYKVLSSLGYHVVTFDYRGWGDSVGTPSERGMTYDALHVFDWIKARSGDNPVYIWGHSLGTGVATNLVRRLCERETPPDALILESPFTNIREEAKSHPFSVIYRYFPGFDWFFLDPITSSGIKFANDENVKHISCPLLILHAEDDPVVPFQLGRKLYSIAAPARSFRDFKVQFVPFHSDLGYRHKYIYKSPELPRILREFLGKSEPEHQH

ABHD6 = molecular target: T4, ABHD6 (Mus musculus, UniProt Q8R2Y0); assay: Competitive ABPP, mouse brain membrane proteome: ABHD6 band; conditions: reference inhibitor at the indicated concentration, used to identify the band (refs 18, 23, 24)
T4 sequence (Q8R2Y0 1-336): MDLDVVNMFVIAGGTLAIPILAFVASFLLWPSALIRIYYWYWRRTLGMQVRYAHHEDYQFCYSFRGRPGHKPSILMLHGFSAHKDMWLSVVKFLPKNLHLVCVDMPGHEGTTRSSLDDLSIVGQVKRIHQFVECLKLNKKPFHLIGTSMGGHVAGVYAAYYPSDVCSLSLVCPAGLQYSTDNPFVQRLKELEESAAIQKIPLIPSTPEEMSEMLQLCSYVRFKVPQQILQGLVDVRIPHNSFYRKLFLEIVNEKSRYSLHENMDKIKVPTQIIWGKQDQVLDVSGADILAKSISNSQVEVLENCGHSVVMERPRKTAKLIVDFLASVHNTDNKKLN

FAAH = molecular target: T5, FAAH (Mus musculus, UniProt O08914); assay: Competitive ABPP, mouse brain membrane proteome: FAAH band
T5 sequence (O08914 1-579): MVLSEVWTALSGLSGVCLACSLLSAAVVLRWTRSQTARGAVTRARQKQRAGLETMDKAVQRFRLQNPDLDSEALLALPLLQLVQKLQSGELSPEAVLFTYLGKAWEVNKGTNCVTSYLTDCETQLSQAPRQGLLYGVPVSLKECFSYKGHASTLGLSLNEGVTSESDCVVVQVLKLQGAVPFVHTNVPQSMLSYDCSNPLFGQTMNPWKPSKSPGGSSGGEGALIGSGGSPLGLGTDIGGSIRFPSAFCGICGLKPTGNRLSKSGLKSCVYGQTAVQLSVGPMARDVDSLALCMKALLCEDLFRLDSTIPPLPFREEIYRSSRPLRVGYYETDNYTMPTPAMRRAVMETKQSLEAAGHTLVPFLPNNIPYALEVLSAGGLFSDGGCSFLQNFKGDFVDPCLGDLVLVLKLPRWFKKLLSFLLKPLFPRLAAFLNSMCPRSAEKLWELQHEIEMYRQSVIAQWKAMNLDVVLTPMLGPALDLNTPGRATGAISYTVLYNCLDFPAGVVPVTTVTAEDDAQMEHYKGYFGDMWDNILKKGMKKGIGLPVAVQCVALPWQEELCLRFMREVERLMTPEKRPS

MAGL = molecular target: T6, MAGL (Mus musculus, UniProt O35678); assay: Competitive ABPP, mouse brain membrane proteome: MAGL doublet
T6 sequence (O35678 1-303): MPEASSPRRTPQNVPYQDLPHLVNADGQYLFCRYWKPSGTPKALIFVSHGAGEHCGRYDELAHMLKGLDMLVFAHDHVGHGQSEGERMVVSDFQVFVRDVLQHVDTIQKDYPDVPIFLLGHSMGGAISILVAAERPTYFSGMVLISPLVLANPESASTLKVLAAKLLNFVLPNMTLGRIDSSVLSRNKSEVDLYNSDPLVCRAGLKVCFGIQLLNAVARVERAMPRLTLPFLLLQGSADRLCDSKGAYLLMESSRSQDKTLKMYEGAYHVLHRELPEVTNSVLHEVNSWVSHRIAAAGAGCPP

LYPLA1/2 = assay: Competitive ABPP, mouse brain membrane proteome: LYPLA1/2 band; conditions: 1 µM or indicated concentrations (Figure 11); 60 min
KIAA1363 = molecular target: T7, KIAA1363 (Mus musculus, UniProt Q8BLF1); assay: Competitive ABPP, mouse brain membrane proteome: KIAA1363 doublet; format: binding; conditions: 1 µM or indicated concentrations (Figure 11); 60 min
T7 construct: from tissue; host or cells: mouse whole brain membranes
T7 sequence (Q8BLF1 1-408): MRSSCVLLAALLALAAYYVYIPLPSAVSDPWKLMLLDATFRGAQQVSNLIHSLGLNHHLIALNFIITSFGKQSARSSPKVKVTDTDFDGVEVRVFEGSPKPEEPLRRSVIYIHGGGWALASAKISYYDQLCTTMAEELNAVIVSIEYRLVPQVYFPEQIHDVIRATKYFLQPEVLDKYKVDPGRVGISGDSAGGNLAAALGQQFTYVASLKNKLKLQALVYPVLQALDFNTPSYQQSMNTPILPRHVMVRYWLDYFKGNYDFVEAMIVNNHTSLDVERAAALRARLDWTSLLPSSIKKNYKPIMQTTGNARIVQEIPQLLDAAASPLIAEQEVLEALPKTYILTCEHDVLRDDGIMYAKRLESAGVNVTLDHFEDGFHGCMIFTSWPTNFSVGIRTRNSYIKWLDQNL

hBAT5 = molecular target: T8, hBAT5 (Homo sapiens, UniProt O95870); assay: Inhibition of 1-LG hydrolysis in hBAT5-HEK293 lysates (fluorescent glycerol assay); format: biochemical; design: host or cells: HEK293; conditions: 1-LG 25 µM; 30 min inhibitor pretreatment; monitored 90 min; mean, n=3; read-out: IC50
T8 sequence (O95870 1-558): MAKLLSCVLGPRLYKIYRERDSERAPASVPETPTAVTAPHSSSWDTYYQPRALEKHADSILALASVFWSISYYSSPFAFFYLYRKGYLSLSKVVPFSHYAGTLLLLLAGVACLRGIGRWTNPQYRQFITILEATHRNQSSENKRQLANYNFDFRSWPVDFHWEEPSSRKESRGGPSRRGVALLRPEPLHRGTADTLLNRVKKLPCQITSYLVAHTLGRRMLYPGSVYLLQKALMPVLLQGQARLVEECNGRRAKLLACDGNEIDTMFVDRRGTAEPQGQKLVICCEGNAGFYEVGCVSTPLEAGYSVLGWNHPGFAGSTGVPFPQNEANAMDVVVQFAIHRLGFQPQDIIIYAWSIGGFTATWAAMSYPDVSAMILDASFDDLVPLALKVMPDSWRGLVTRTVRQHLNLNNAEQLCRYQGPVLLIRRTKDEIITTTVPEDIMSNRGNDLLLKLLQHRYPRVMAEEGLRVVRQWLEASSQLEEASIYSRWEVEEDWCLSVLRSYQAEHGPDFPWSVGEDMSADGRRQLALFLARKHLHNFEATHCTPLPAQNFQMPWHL

BAT5 = molecular target: T9, BAT5 (Mus musculus, UniProt Q9Z1Q2); assay: Competitive ABPP, mouse brain membrane proteome: BAT5 band; conditions: mouse brain membrane proteome, competitive ABPP
T9 sequence (Q9Z1Q2 1-558): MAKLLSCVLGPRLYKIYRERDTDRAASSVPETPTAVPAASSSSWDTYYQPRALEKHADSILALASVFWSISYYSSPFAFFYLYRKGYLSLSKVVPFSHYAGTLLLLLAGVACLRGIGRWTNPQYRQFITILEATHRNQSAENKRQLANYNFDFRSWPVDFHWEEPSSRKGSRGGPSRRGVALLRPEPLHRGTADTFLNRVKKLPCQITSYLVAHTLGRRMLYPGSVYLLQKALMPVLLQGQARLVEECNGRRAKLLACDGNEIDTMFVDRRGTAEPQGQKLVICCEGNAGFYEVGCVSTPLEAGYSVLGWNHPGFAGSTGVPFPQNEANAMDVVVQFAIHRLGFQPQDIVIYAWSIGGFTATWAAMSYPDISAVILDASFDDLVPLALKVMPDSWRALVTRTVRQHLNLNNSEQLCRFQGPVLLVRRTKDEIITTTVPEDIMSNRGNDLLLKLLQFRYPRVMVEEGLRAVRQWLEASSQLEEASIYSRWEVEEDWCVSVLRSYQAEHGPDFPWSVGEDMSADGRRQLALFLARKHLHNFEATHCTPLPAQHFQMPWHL

[1] = 1 µM or indicated concentrations (Figure 11), 60 min

Structure (SMILES): CCCCC/C=C\C/C=C\C/C=C\C/C=C\CCCC(=O)OC(CO)CO [2-AG, 2-arachidonoylglycerol]
- Km (hMAGL): 110 to 160 µM
- Km (hABHD6): 110 to 160 µM
- Km (hABHD12): 110 to 160 µM

Structure (SMILES): O=C(Oc1ccc([N+](=O)[O-])cc1)N1CCN(Cc2cccc(Oc3ccccc3)c2)CC1 [JZL195]
- inhibition of probe labeling of ABHD6 by reference inhibitor (ABHD6): inhibited
- inhibition of probe labeling of FAAH by reference inhibitor (FAAH; reference inhibitor at the indicated concentration, used to identify the band (ref 21)): inhibited
- inhibition of probe labeling of MAGL by reference inhibitor (MAGL; reference inhibitor at the indicated concentration, used to identify the band (refs 21, 22)): inhibited

Structure (SMILES): COc1nn(-c2cccc([N+](=O)[O-])c2)c(=O)o1 [compound 40, 5-Methoxy-3-(3-nitrophenyl)-1,3,4-oxadiazol-2(3H)-one]
- inhibition of probe binding to LYPLA1/2 (LYPLA1/2): did not visibly affect probe binding
- inhibition of probe binding to KIAA1363 (KIAA1363): did not visibly affect probe binding
- IC50 (hBAT5): 63 nM
- inhibition of probe binding to FAAH (FAAH; [1]): did not visibly affect probe binding
- BAT5 selectivity among serine hydrolases as compared to 38 (BAT5): improved BAT5 selectivity
- inhibition of probe binding to MAGL (MAGL; [1]): did not visibly affect probe binding

Structure (SMILES): COc1nn(-c2ccc(F)cc2)c(=O)o1 [compound 44]
- inhibition of probe binding to KIAA1363 (KIAA1363): shared one off-target with 38
- BAT5 selectivity among serine hydrolases as compared to 38 (BAT5): improved BAT5 selectivity
